Experimental data taken from patent US20260207668A1, “MANIPULATION OF ADRENERGIC RECEPTORS TO INFLUENCE IMMUNE CELL DIFFERENTIATION AND FUNCTION” (Salk Institute for Biological Studies, priority 2022, published 2026).

Key:
YUMMER1.7 melanomas = assay: YUMMER1.7 melanoma in mice, beta-blocker alone or with ICB; assay type: in vivo; settings: for cytokine production by CD8+ T cells: combination with ICB, tumor CD8+ T cells stimulated with PMA/ionomycin
PDAC tumors = assay: Orthotopic PDAC (6419c5) in mice, beta-blocker alone or with ICB; assay type: in vivo; settings: for tumor growth: agent alone; for tumor growth (abdominal ultrasound volume and tumor mass): in combination with ICB (anti-PD-1 + anti-CTLA-4)
ADRB1 = ADRB1 (Mus musculus, UniProt P34971); set-up: dose or concentration left out as unconfirmed; settings: Adrb1 OE P14+ cells vs empty vector; for CD8+ T cell cytokine production: gp33 stimulation; for CD8+ T cell proliferation: up to 6 days of culture
ADRB1 vs. ADRB2 = settings: relative to β1; cited from earlier work
LCMV-clone 13 = assay type: in vivo, mice
[1] = test system: CD8+ T cells in PDAC tumors; assay: scRNA Seq of tumor infiltrating T cells from PDAC tumors; assay type: in vivo, mice
Method: For scRNA Seq of PDAC tumors 4 tumors each per treatment condition were pooled and stained for sorting. The following cell populations were sorted into RPMI supplemented with 20% fetal bovine serum: Thy1.2^+ CD45.2^+ (T cells), Thy1.2^− CD45.2^+ (Non T cell leukocytes), YFP^+ CD45.2^− (tumor cells). Sorted cells were spun down at 420 rcf at 4° C. for 4 minutes, resuspended in PBS+2% fetal bovine serum and mixed at 8 k Thy1.2^+ CD45.2^+, 10 k Thy1.2^− CD45.2^+, 2 k YFP^+ CD45.2^− for a total of 20 k cells per sample.
Samples were then loaded onto Chromium Chip G (10× Genomics) and partitioned into Gel Bead-in-Emulsions using a chromium controller (10× Genomics). Single cell RNA libraries were generated following the manufacturer's instructions of the Chromium Next GEM Single Cell 3′ Reagent Kit v3.1 (10× Genomics) followed by sequencing on a NovaSeq6000 at the NGS Core of the Salk Institute. Cellranger count was used to align reads to the mm10 genome and YFP. The resulting counts matrix was then processed using the R package scran^54 and outlying cells identified with quickPerCellQC (stats, percent_subsets=“subsets_Mito_percent”) were discarded. Data was log normalized using quickCluster, computeSumFactors and logNormCounts. The top 10% most variable genes were calculated using modelGeneVarByPoisson and getTopHVGs and then used in the PCA calculation using denoisePCA. The top 50 principal components were used to calculate a UMAP dimensional reduction using the runUMAP function (metric=“cosine”, min_dist=0.3 and n_neighbors=30). Leiden clustering was performed with igraph's cluster_leiden (with resolution=0.05) after running buildSNNGraph (with k=25). Cell types were annotated using SingleR^55 and the ImmGenData labels as a reference using default parameters. For further analysis the dataset was filtered on T cells according to the SingleR labels and variable genes, PCA and UMAP were calculated with the same settings described above. Clustering of T cells was performed using cluster_leiden with the resolution set to 1.8. For visualization, data imputation was performed using MAGIC^56 using the exact solver. To assign biological relevance to the T cell clusters, a heatmap of the median log normalized expression (using aggregateAcrossCells) of selected markers was generated and visualized using ComplexHeatmap^57. Differential genes for the clusters were identified by performing pairwise comparison of one cluster against all other clusters using the findMarkers function (test.type=“binom”, lfc=0.1, direction=“up”). Gene signatures for T cell exhaustion and TRn cells were obtained from Wherry et al and Milner et al respectively^45,58 in addition to the MSigDB hallmark gene sets. Gene signature scores were calculated using AUCell^59 (aucMaxRank set to 5%). […]

[2] = gp33+ CD8+ T cells, d37 p.i., vs untreated

ADRB1, sequence (P34971 whole entry): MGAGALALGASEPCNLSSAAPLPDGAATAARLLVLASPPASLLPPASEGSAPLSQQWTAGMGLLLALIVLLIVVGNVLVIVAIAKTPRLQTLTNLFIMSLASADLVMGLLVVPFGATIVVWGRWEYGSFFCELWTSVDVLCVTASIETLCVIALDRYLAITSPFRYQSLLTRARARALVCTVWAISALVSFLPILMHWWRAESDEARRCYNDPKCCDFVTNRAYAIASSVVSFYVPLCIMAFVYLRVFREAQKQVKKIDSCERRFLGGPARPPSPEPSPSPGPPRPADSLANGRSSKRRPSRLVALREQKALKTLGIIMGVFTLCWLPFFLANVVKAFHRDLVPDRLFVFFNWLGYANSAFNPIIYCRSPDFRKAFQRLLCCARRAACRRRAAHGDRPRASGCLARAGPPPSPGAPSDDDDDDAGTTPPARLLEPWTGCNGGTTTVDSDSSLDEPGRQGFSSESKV

SMILES: Cn1cc(C(F)(F)F)nc1-c1ccc(OCC(O)CNCCOc2ccc(O)c(C(N)=O)c2)cc1 (stereo not shown) [CGP 20712A]
- cytokine production by CD8+ T cells (YUMMER1.7 melanomas): significantly increased

SMILES: Cc1ccc(OCC(O)C(C)NC(C)C)c2c1CCC2 (stereo not shown) [ICI 11855135]
- tumor growth (PDAC tumors): failed to suppress tumor growth
- tumor growth (abdominal ultrasound volume and tumor mass) (PDAC tumors): failed to suppress tumor growth

SMILES: CNCC(O)c1ccc(O)c(O)c1 (stereo not shown) [adrenaline]
- CD8+ T cell cytokine production (ADRB1): impairs
- CD8+ T cell proliferation (ADRB1): impairs

SMILES: CC(C)NCC(O)COc1ccc(CC(N)=O)cc1 (stereo not shown) [atenolol]
- tumor growth (PDAC tumors): failed to suppress tumor growth
- tumor growth (abdominal ultrasound volume and tumor mass) (PDAC tumors): failed to suppress tumor growth
- block of the β2-adrenergic receptor (ADRB1 vs. ADRB2): to a lower degree
- tumor cell proliferation (tumor expression of Ki67 relative to IgG, IHC) (YUMMER1.7 melanomas; beta-blocker alone vs IgG, YUMMER tumors): does not directly affect tumor cell proliferation
- effects on differentiation of exhausted T cells (YUMMER1.7 melanomas; combination with ICB (anti-PD-1 + anti-CTLA-4)): did not extend beyond those of the checkpoint therapy alone
- tumor size (normalized tumor mass relative to IgG control) (YUMMER1.7 melanomas; combination with ICB (anti-PD-1 + anti-CTLA-4), compared to untreated or beta-blocker alone): significantly smaller
- cytokine production by CD8+ T cells (YUMMER1.7 melanomas): dramatically increased
- frequencies of IFNγ-, TNF- and GZMB-producing virus-specific CD8+ T cells (LCMV-clone 13; after gp33 stimulation for 6 h, d37 p.i., vs untreated): higher frequencies
- expansion of virus-specific CD8+ T cells that displayed features of TEXprog, at the expense of TEXeff and TEXterm (LCMV-clone 13; atenolol 0.5 mg/ml in drinking water throughout infection vs untreated, spleen, d37 p.i.): greater expansion
- amounts of CREM in virus-specific CD8+ T cells (LCMV-clone 13; [2]): lowered
- amounts of cAMP in virus-specific CD8+ T cells (LCMV-clone 13; [2]): lowered
- viral titers (LCMV-clone 13; serum of LCMV-clone 13-infected mice, vs untreated): lower viral titers

SMILES: NC[C@H](O)c1ccc(O)c(O)c1 [noradrenaline]
- CD8+ T cell cytokine production (ADRB1): impairs
- CD8+ T cell proliferation (ADRB1): impairs

SMILES: CC(C)NCC(O)COc1cccc2ccccc12 (stereo not shown) [propranolol]
- tumor cell proliferation (tumor expression of Ki67 relative to IgG, IHC) (PDAC tumors; beta-blocker alone vs IgG, PDAC tumors): does not directly affect tumor cell proliferation
- CD8+ T cells in the tumors (PDAC tumors; combination with ICB): increase
- production of IFNγ and GZMB (PDAC tumors; combination with ICB, after PMA/ionomycin stimulation): increased production
- expression of the activation/exhaustion markers PD-1 and TIM3 (PDAC tumors; combination with ICB, tumor CD8+ T cells): higher expression
- tumor growth (abdominal ultrasound volume and tumor mass) (PDAC tumors): significantly reduced
- T cell clusters 1 and 5 (TRM-like and exhausted CD8+ T cells) ([1]; combination treatment with ICB): enriched
- cytokine and chemokine production (Gzma, Tgfb1, Gzmb, Xcl1, Ccl3, Ccl4, Ifng, Prf1) of CD8+ T cells ([1]; combination treatment with ICB): enhanced
- signatures for T cell response, exhaustion and TRM ([1]; combination treatment with ICB): enriched
- upregulated genes in CD8+ T cells compared to the isotype control ([1]; propranolol and ICB therapy): 272 genes
